The source made the active and inactive calls. The rule behind the calls is not given here. Bounds are passed on as bounds.

In test [1] the test system is EBC-1. The experiment in a line: (§1) Inhibition of cell proliferation of human EBC1 cells at 10 uM after 72 hrs by SRB assay. The format is functional. For orientation: In SRB staining, fixed cells bind dye roughly in proportion to their protein.
Test [2] is described as follows: Inhibition of cell proliferation of human EBC1 cells after 72 hrs by SRB assay. The settings on record: EBC-1, 72 h.
The target in test [3] is T1, Hepatocyte growth factor receptor (Homo sapiens, UniProt P08581). Kind of test: Inhibition of recombinant c-Met (unknown origin) using poly (Glu,Tyr)4:1 substrate incubated for 60 mins by ELISA method. (In general: In an ELISA, binding on a coated surface is turned into a signal by an enzyme label.)
Test [4] relates to EBC-1. The settings on record: Homo sapiens, 1 uM.
The nature of test [5]: Inhibition of cell proliferation of human MKN45 cells after 72 hrs by SRB assay. The note with it: MKN-45, 72 h.
Test [6] can be described thus: Inhibition of cell proliferation of human SNU5 cells after 72 hrs by SRB assay. The note with it: SNU-5, 72 h.
Test [7] concerns SNU1. The experiment in a line: Inhibition of cell proliferation of human SNU1 cells after 72 hrs by SRB assay. The settings on record: SNU1, 72 h.
For test [8], the system named is NCI-H661. The experiment in a line: Inhibition of cell proliferation of human NCI-H661 cells after 72 hrs by SRB assay. The note with it: NCI-H661, 72 h.
The target of test [9] is T1, Hepatocyte growth factor receptor. Kind of test: Inhibition of c-Met (unknown origin).
Test [10] shares this target. The experiment in a line: Inhibition of recombinant c-Met (unknown origin) at 10 uM using poly (Glu,Tyr)4:1 substrate incubated for 60 mins by ELISA method.
The nature of test [11]: as §1. The class given is functional. The settings on record: EBC-1, 72 h.
A short description of test [12]: Inhibition of cell proliferation of human EBC1 cells at 1 uM after 72 hrs by SRB assay. The settings on record: EBC-1, 72 h, read-out: INH.

With `CN(C)CCCCOC(=O)Nc1cccc(Cn2nc(Nc3ccccc3)ccc2=O)c1`, in [1], the inhibition entry is “inactive”. Moreover, the IC50 (commonly the point on the concentration scale where inhibition reaches its midpoint) in test [2] was over 10000 nM.

As to `CCOC(=O)Nc1cccc(Cn2nc(-n3ccc4ccc(F)cc43)ccc2=O)c1`, in test [3], the IC50 was over 10000 nM.

Take `COc1cnc(-c2cccc(Cn3nc(-n4ccc5ccc(F)cc54)ccc3=O)c2)nc1`: the IC50 in test [2] was over 1000 nM. The inhibition result in test [4] was “inactive”.

On to `CN(C)CCCCOC(=O)Nc1cccc(Cn2nc(Nc3cccc(Cl)c3)ccc2=O)c1`, for which the inhibition entry in [1] is “inactive”.

On to `O=C(Nc1cccc(Cn2nc(-n3ccc4ccc(F)cc43)ccc2=O)c1)OCCCCn1cccn1`, for which the 50% inhibitory concentration (IC50) in test [2] is at most 1000 nM.

As to `CN1CCN(CCCOC(=O)Nc2cccc(Cn3nc(-n4ccc5ccc(F)cc54)ccc3=O)c2)CC1`, the concentration for half-maximal inhibition (IC50) in [2] was at most 100 nM; in test [5], 700 nM; in test [6] it was 1200 nM; in [7] it was 3900 nM; in [8] it was 1600 nM.

In [2], `CN(C)CCCOC(=O)Nc1cccc(Cn2nc(-n3ccc4ccc(F)cc43)ccc2=O)c1` gave a half-maximal inhibitory concentration (IC50) of at most 1000 nM.

For `CN(C)CCCCOC(=O)Nc1cccc(Cn2nc(Nc3ccc(C(F)(F)F)cc3)ccc2=O)c1`, the inhibition result in [1] was “inactive”.

The molecule `CN1CCN(CCOc2cnc(-c3cccc(Cn4nc(-n5ccc6ccc(F)cc65)ccc4=O)c3)nc2)CC1` displayed an IC50 in test [2] of 130 nM.

Regarding `CN(C)CCOCCOC(=O)Nc1cccc(Cn2nc(-n3ccc4ccc(F)cc43)ccc2=O)c1`, the IC50 in test [2] is at most 1000 nM.

`COCCCOc1cnc(-c2cccc(Cn3nc(-n4ccc5ccc(F)cc54)ccc3=O)c2)nc1` registered an IC50 in test [2] of 272 nM.

`O=C(Nc1cccc(Cn2nc(-n3ccc4ccc(F)cc43)ccc2=O)c1)OCCCCN1CCOCC1` showed a 50% inhibitory concentration (IC50) in test [2] of at most 1000 nM.

Molecule `O=c1ccc(-n2ccc3ccc(F)cc32)nn1Cc1cccc(-c2ncc(OCCN3CCOCC3)cn2)c1` showed a half-inhibitory concentration (IC50) in [2] of 124 nM.

Turning to `CN(C)CCCCOC(=O)Nc1cccc(Cn2nc(Nc3cccc(F)c3)ccc2=O)c1`, in [1], the inhibition entry is “inactive”.

In the case of `Nc1ccc(Cn2nc(Nc3ccccc3)ccc2=O)cc1`, the concentration for half-maximal inhibition (IC50) in test [9] is 10000 nM.

`COCCOc1ccc2c(OCCn3nc(-n4ccc5ccc(F)cc54)ccc3=O)ccnc2c1` showed an IC50 in test [2] of 21.1 nM.

On to `Cc1cccc(Nc2ccc(=O)n(Cc3cccc(NC(=O)OCCCCN(C)C)c3)n2)c1`, for which, in test [1], the inhibition entry is “inactive”.

As for `CN(C)CCCCOC(=O)Nc1cccc(Cn2nc(Nc3cccc(C(F)(F)F)c3)ccc2=O)c1`, the inhibition entry in test [1] is “inactive”.

In the case of `CN(C)CCCCOC(=O)Nc1cccc(Cn2nc(-n3ccc4ccc(F)cc43)ccc2=O)c1`, the half-inhibitory concentration (IC50) in [2] was at most 1000 nM.

`Cc1ccccc1Nc1ccc(=O)n(Cc2ccccc2NC(=O)OCCCCN(C)C)n1`: the concentration for half-maximal inhibition (IC50) in [3] was over 10000 nM.

For the molecule `Cc1ccc(Nc2ccc(=O)n(Cc3cccc(NC(=O)OCCCCN(C)C)c3)n2)cc1`, the inhibition result in test [1] was “inactive”. Besides, in [10], the inhibition worked out at 55.5%.

On to `CN(C)CCCCOC(=O)Nc1cccc(Cn2nc(Nc3cc(F)cc(F)c3)ccc2=O)c1`, for which the inhibition result in test [1] was “inactive”.

As for `CN(C)CCCCOC(=O)Nc1cccc(Cn2nc(Nc3ccc(F)cc3)ccc2=O)c1`, the inhibition result in test [1] was “inactive”.

In test [2], `COC(=O)CCCCOC(=O)Nc1cccc(Cn2nc(-n3ccc4ccc(F)cc43)ccc2=O)c1` displayed a half-inhibitory concentration (IC50) of over 10000 nM.

`CN1CCN(CCCCCOC(=O)Nc2cccc(Cn3nc(-n4ccc5ccc(F)cc54)ccc3=O)c2)CC1` returned an IC50 in [2] of at most 1000 nM.

As to `CN(C)CCCCOC(=O)Nc1cccc(Cn2nc(Nc3ccccc3F)ccc2=O)c1`, in test [1], the inhibition entry was “inactive”.

For `CN(C)CCCCCOC(=O)Nc1cccc(Cn2nc(-n3ccc4ccc(F)cc43)ccc2=O)c1`, the IC50 in [2] is at most 100 nM.

As for `CN1CCN(CCCCOC(=O)Nc2cccc(Cn3nc(-n4ccc5ccc(F)cc54)ccc3=O)c2)CC1`, in [2], the half-maximal inhibitory concentration (IC50) is at most 100 nM.

As for `CN(C)CCCCOC(=O)Nc1cccc(Cn2nc(Nc3ccccc3C(F)(F)F)ccc2=O)c1`, the inhibition entry in test [1] was “inactive”. Also, the inhibition in test [10] was 63.4%.

As to `Cc1ccccc1Nc1ccc(=O)n(Cc2ccc(NC(=O)OCCCCN(C)C)cc2)n1`, the IC50 in test [3] is over 10000 nM.

For the molecule `Cc1ccccc1Nc1ccc(=O)n(Cc2cccc(NC(=O)OCCCCN(C)C)c2)n1`, the inhibition result in test [1] is “inactive”.

In turn, `CN(C)CCCCOC(=O)Nc1cccc(Cn2nc(-n3ccc4ccccc43)ccc2=O)c1` yielded an inhibition at 10 µM in test [11] of over 70%. Moreover, the inhibition at 1 µM in test [12] is under 50%.

`CN1CCN(CCCOc2cnc(-c3cccc(Cn4nc(-n5ccc6ccc(F)cc65)ccc4=O)c3)nc2)CC1` had a half-maximal inhibitory concentration (IC50) in test [2] of 198 nM.

As for `CN(C)CCOC(=O)Nc1cccc(Cn2nc(-n3ccc4ccc(F)cc43)ccc2=O)c1`, in test [2], the IC50 was at most 1000 nM.
